From patent US4018895A, “Aryloxyphenylpropylamines in treating depression” (Eli Lilly and Company, priority 1975, dated 1977)

Legend:
[1] = test system: QRS complex of the electrocardiogram; assay: Electrocardiogram in anesthetized cats after intravenous injection; conditions: in words
[2] = test system: hypothermia induced by the injection of reserpine; assay: Reserpine hypothermia reversal test; assay type: in vivo, mice; conditions: in words
Description: (§1) The apomorphine hypothermia antagonism test is carried out as follows: mice are injected with a dose of apomorphine known to reduce body temperature approximately 4° C. The compound under test is injected 1/2 hour before the injection of the apomorphine and the temperatures measured 1/2 hour after injection. The degree of antagonism is expressed as a percent reduction (as compared with controls) of the temperature decrease produced by the injection of the apomorphine. The reserpine hypothermia reversal test is carried out as follows: groups of mice are injected with reserpine and 16.5 hours later are injected intraperitoneally with graded doses of the drug, a different dose level being given to each group of mice. Temperatures are measured at 1 hour after injection of the drug under test and again the effectiveness of the drug is expressed as a percentage decrease in the hypothermia induced by the injection of reserpine as compared with the control group. In the tablets which follow, Table 4 gives the results in the apomorphine antagonism and reserpine reversal hypothermia tests for the secondary amines of this invention. In the table, the first column gives the substituent attached to the oxygen atom at the 3 position of the propylamine chain; columns 2 to 4 the percent antagonism against apomorphine hypothermia at dose levels of 0.3, 1 and 3 mg./kg. and columns 5-7 the percent reversal of reserpine hypothermia at the same dose levels.

[3] = test system: hypothermia induced by the injection of apomorphine; assay: Apomorphine hypothermia antagonism test; assay type: in vivo, mice; conditions: for Activity in antagonism of apomorphine hypothermia: in words
Description: as §1, with “The compound under test is injected 1/2 hour before the injection of the apomorphine and the temperatures measured 1/2 hour after injection.” left out

[4] = test system: anticholinergic effect, isolated muscle strips; assay: Anticholinergic effect in isolated muscle strips
[5] = test system: response rates of pigeons; assay: Operant behavior, fixed-ratio, fixed interval schedule; assay type: in vivo; conditions: in words
Excerpt: In manifesting their psychotropic action, the compounds of this invention also affect the behavior of animals trained in a variety of operant behavior schedules. Again, the activity of compounds of this invention in this type of test parallels that of known antidepressant drugs, particularly desmethylimipramine. […] With pigeons trained under an adjusting ratio schedule, the drugs of this invention affect behavior in the same way as does the marketed antidepressant, desmethylimipramine (DMI). […] The above results are consistent with antidepressant action.

brain serotonin = assay: Prevention of brain serotonin depletion caused by 4-chloroamphetamine; assay type: in vivo; conditions: rats injected with 4-chloroamphetamine; drug 15 mg./kg. intraperitoneally; 4 hours later
Description: Following this injection, the protecting drug was injected at a dose of 15 mg./kg. of rat-weight intraperitoneally and determinations of brain serotonin levels were carried out 4 hours later.

[6] = test system: antihistaminic effect, isolated muscle strips; assay: Antihistaminic effect in isolated muscle strips
[7] = test system: antiserotonin effect, isolated muscle strips; assay: Antiserotonin effect in isolated muscle strips

Row | SMILES | Effect on the electrocardiogram (widening of the QRS complex) [1] | Activity in reversal of reserpine hypothermia [2] | Reduction of apomorphine hypothermia ([3]; 10 mg./kg. dose, measured 60 minutes after injection of the apomorphine) [%] | Activity in antagonism of apomorphine hypothermia [3] | Potency as anticholinergic agent relative to N-methyl 3-(o-methoxyphenoxy)-3-phenylpropylamine [4] [times] | Response rates in fixed-ratio, fixed interval schedule [5] | Brain serotonin level (brain serotonin) | Potency as antihistaminic agent relative to N-methyl 3-(o-methoxyphenoxy)-3-phenylpropylamine [6] [times] | Potency as antiserotonin agent relative to N-methyl 3-(o-methoxyphenoxy)-3-phenylpropylamine [7]
1 | CN(C)CCC=C1c2ccccc2CCc2ccccc21 [amitriptyline, reference compound] | causes a widening of the QRS complex of the electrocardiogram | active | 100 | active |  |  |  |  | 
2 | CNCCCN1c2ccccc2CCc2ccccc21 [desmethylimipramine] |  | active |  | active | 150 | A similar effect | 0.44 ± .03 µg/g | 150 | three
